Measured values taken from patent US20100119599A1 (ARCHER PHARMACEUTICALS, INC., priority 2006, published 2010).

Experiments:
Aβ1-42 = assay: Measurement of Aβ1-42 in culture medium of 7W WT APP751 CHO cells by ELISA; type: cell-based, Chinese hamster; settings: for Aβ1-42 (% of control): CHO cells that overexpress APP751, zero = below the detection limit of the assay
Aβ1-40 = assay: Measurement of Aβ1-40 in culture medium of 7W WT APP751 CHO cells by ELISA; type: cell-based, Chinese hamster; settings: for Aβ1-40 (% of control): CHO cells that overexpress APP751, zero = below the detection limit of the assay
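Also: 5 µM test compound but RI-coded compounds at 10 µM for 24 hours.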

Row | Compound | activity at 5 µM (Aβ1-42; Cricetulus griseus, Table 1, 5 μM test compound, CHO cells stably transfected with human APP751, culture medium, ELISA, control DMSO, 0 = no detectable amount, read-out: Aβ1-42 (% of control)) [%] | activity at 5 µM (Aβ1-40; Cricetulus griseus, Table 1, 5 μM test compound, CHO cells stably transfected with human APP751, culture medium, ELISA, control DMSO, 0 = no detectable amount) [%] | Aβ1-42 (% of control) (Aβ1-42) | Aβ1-40 (% of control) (Aβ1-40)
1 | COC(=O)C1=C(C)NC2=C(C(=O)CC(c3ccc(OC)c(OC)c3)C2)C1c1cc(OC)c(OC)c(OC)c1 (centres unmarked) [ST024574, methyl 7-(3,4-dimethoxyphenyl)-2-methyl-5-oxo-4-(3,4,5-trimethoxyphenyl)-1,4,6,7,8-pentahydroquinoline-3-carboxylate] | 83.6 | 65.3 |  | 
2 | COC(=O)C1=CN(Cc2ccc(F)cc2)C=C(C(=O)OC)C1c1ccc(Cl)cc1 [ST024836, methyl 4-(4-chlorophenyl)-1-[(4-fluorophenyl)methyl]-5-(methoxycarbonyl)-1,4-dihydropyridine-3-carboxylate] |  |  | 82.55 % of control | 26.41 % of control
3 | N#CC1=C(N)n2c(s/c(=C/c3cccc(Br)c3)c2=O)=C(C#N)C1c1cccc(Br)c1 (centres unmarked) [ST024841, 5-amino-7-(3-bromophenyl)-2-[(3-bromophenyl)methylene]-3-oxo-4,7-dihydro-1,3-thiazolidino[3,2-a]pyridine-6,8-dicarbonitrile] |  |  | 95.58 % of control | 61.78 % of control
4 | COc1ccc(/C=c2\sc3n(c2=O)C(N)=C(C#N)C(c2ccc(OC)cc2OC)C=3C#N)c(OC)c1 (centres unmarked) [ST025017, 5-amino-7-(2,4-dimethoxyphenyl)-2-[(2,4-dimethoxyphenyl)methylene]-3-oxo-4,7-dihydro-1,3-thiazolidino[3,2-a]pyridine-6,8-dicarbonitrile] |  |  | 72.39 % of control | 64.54 % of control
5 | CCOc1ccc(/C=c2\sc3n(c2=O)C(N)=C(C#N)C(c2ccc(OCC)c(OC)c2)C=3C#N)cc1OC (centres unmarked) [ST025022, 5-amino-7-(4-ethoxy-3-methoxyphenyl)-2-[(4-ethoxy-3-methoxyphenyl)methylene]-3-oxo-4,7-dihydro-1,3-thiazolidino[3,2-a]pyridine-6,8-dicarbonitrile] |  |  | 76.11 % of control | 61.31 % of control
6 | CC(C)COc1cccc(/C=c2\sc3n(c2=O)C(N)=C(C#N)C(c2cccc(OCC(C)C)c2)C=3C#N)c1 (centres unmarked) [ST025023, 5-amino-7-[3-(2-methylpropoxy)phenyl]-2-{[3-(2-methylpropoxy)phenyl]methylene}-3-oxo-4,7-dihydro-1,3-thiazolidino[3,2-a]pyridine-6,8-dicarbonitrile] |  |  | 85.29 % of control | 68.13 % of control
7 | CC(C)Oc1ccc(/C=c2\sc3n(c2=O)C(N)=C(C#N)C(c2ccc(OC(C)C)cc2)C=3C#N)cc1 (centres unmarked) [ST025026, 5-amino-7-[4-(methylethoxy)phenyl]-2-{[4-(methylethoxy)phenyl]methylene}-3-oxo-4,7-dihydro-1,3-thiazolidino[3,2-a]pyridine-6,8-dicarbonitrile] |  |  | 0 % of control | 26.82 % of control
8 | COc1cc(/C=c2\sc3n(c2=O)C(N)=C(C#N)C(c2ccc(OC(C)C)c(OC)c2)C=3C#N)ccc1OC(C)C (centres unmarked) [ST025029, 5-amino-7-[3-methoxy-4-(methylethoxy)phenyl]-2-{[3-methoxy-4-(methylethoxy)phenyl]methylene}-3-oxo-4,7-dihydro-1,3-thiazolidino[3,2-a]pyridine-6,8-dicarbonitrile] |  |  | 73.69 % of control | 65.7 % of control
9 | N#CC1=C(N)n2c(s/c(=C\c3cc(Br)ccc3O)c2=O)=C(C#N)C1c1cc(Br)ccc1O (centres unmarked) [ST025030, 5-amino-7-(5-bromo-2-hydroxyphenyl)-2-[(5-bromo-2-hydroxyphenyl)methylene]-3-oxo-4,7-dihydro-1,3-thiazolidino[3,2-a]pyridine-6,8-dicarbonitrile] |  |  | 33.93 % of control | 39.29 % of control
10 | COc1cc(/C=c2\sc3n(c2=O)C(N)=C(C#N)C(c2cc(OC)c(OC)c(OC)c2)C=3C#N)cc(OC)c1OC (centres unmarked) [ST025031, 5-amino-3-oxo-7-(3,4,5-trimethoxyphenyl)-2-[(3,4,5-trimethoxyphenyl)methylene]-4,7-dihydro-1,3-thiazolidino[3,2-a]pyridine-6,8-dicarbonitrile] |  |  | 77.59 % of control | 55.17 % of control
